Patent US20160075695A1, “BENZIMIDAZOLE DERIVATIVES AS BROMODOMAIN INHIBITORS” (Gilead Sciences, Inc., priority 2013, published 2016)

Tests used:
BRD4-1 [1] = biological target: T1, BRD4-1 (Homo sapiens, UniProt O60885); experiment: HTRF (TR-FRET) assay, BRD4-1 binding to acetylated histone H4 peptide; conditions: 60 nM BRD4-1, 200 nM H4 peptide, 60 minutes at 25° C.; geometric mean of a minimum of four determinations; read-out: HTRF BRD4-1 (IC50)
T1 construct: made in house; host or cells: Escherichia coli
Method: (§1) Binding of the two tandem bromodomains, BRD4-1 and BRD4-2, to an acetylated histone H4 peptide was measured using a homogeneous time resolved fluorescence resonance energy transfer (TR-FRET) assay. […] BRD4-1 and BRD4-2 were expressed and purified from Escherichia coli as N-terminal His6-tagged proteins. An XL665 labeled anti-His antibody (Cisbio) was used to specifically bind BRD4 and a cryptate labeled streptavidin protein was used because it specifically recognized the biotinylated H4 peptide. […] After an assay reaction time of 60 minutes at 25° C., binding was measured with 2 nM crytptate labeled streptavidin and 10 nM anti-His-XL665 antibody. TR-FRET signal was detected on an Envision plate reader (Ex: 320 nm; Em: 615/665 nm; 100 us delay and 200 μs read window). […] All IC50 values represent geometric mean values of a minimum of four determinations.

BRD4-2 = biological target: T2, BRD4-2 (Homo sapiens, UniProt O60885); experiment: HTRF (TR-FRET) assay, BRD4-2 binding to acetylated histone H4 peptide; conditions: 120 nM BRD4-2, 200 nM H4 peptide, 60 minutes at 25° C.; geometric mean of a minimum of four determinations; read-out: HTRF BRD4-2 (IC50)
T2 construct: made in house; host or cells: Escherichia coli
Method: as §1

BRD4-1 [2] = biological target: T1, BRD4-1; experiment: Alpha assay, BRD4-1 binding to acetylated histone H4 peptide; conditions: 15 nM BRD4-1, 200 nM H4 peptide, 60 minutes at 25° C.; geometric mean of a minimum of four determinations; read-out: Alpha Assay (IC50)
Method: Binding of the bromodomain BRD4-I to an acetylated histone H4 peptide was measured using a bead-based Amplified Luminescent Proximity Homogeneous Assay (ALPHA). […] BRD4-I was expressed and purified from Escherichia coli as an N-terminal His6-tagged protein. Nickel-Chelate ALPHA acceptor beads (Perkin Elmer) were used to specifically bind BRD4-1 and ALPHA streptavidin donor beads (Perkin Elmer) were used because they specifically recognized the biotinylated H4 peptide. […] Assays were performed in 50 mM Hepes (pH 7.5), 150 mM NaCl, 0.1 mg/ml BSA, 0.01% (v/v) Brij, 0.5% (v/v) DMSO, 200 nM H4 peptide and 15 nM of BRD4-1 protein. After an assay reaction time of 60 minutes at 25° C., binding was measured with 20 μg/ml streptavidin donor beads and 20 μg/ml nickle-chelate acceptor beads. ALPHA signal was detected on an Envision plate reader (Ex: 320 nm; Em: 570 nm; Ex time: 180 ms). […] All IC50 values represent geometric mean values of a minimum of four determinations.

Structure (SMILES): Cc1cnn(C)c1-c1cc(-c2c(C)noc2C)cc2nc(C3CC3)[nH]c12 [Compound 1020-12, 4-(2-Cyclopropyl-7-(1,4-dimethyl-1H-pyrazol-5-yl)-1H-benzo[d]imidazol-5-yl)-3,5-dimethylisoxazole]
- IC50 (BRD4-1 [1]): 138 nM
- IC50 (BRD4-2): 69.2 nM
- IC50 (BRD4-1 [2]): 46.2 nM

Structure (SMILES): Cc1n[nH]c(C)c1-c1cc(-c2c(C)noc2C)cc2nc(N)[nH]c12 [Compound 1020-96, 4-(3,5-Dimethyl-1H-pyrazol-4-yl)-6-(3,5-dimethylisoxazol-4-yl)-1H-benzo[d]imidazol-2-amine]
- IC50 (BRD4-1 [1]): 276 nM
- IC50 (BRD4-2): 96.9 nM
- IC50 (BRD4-1 [2]): 53.7 nM

Structure (SMILES): Cc1n[nH]c(C)c1-c1cc(-c2c(C)noc2C)cc2nc(C3CC3)n(C)c12 [Compound 1020-72, 4-(2-cyclopropyl-7-(3,5-dimethyl-1H-pyrazol-4-yl)-1-methyl-1H-benzo[d]imidazol-5-yl)-3,5-dimethylisoxazole]
- IC50 (BRD4-1 [1]): 101 nM
- IC50 (BRD4-2): 69.1 nM
- IC50 (BRD4-1 [2]): 12.3 nM

Structure (SMILES): Cc1noc(C)c1-c1cc(C(O)C2CCCC2)c2nc(C3CC3)[nH]c2c1 (stereo not shown) [Compound 1020-121, Cyclopentyl(2-cyclopropyl-6-(3,5-dimethylisoxazol-4-yl)-1H-benzo[d]imidazol-4-yl)methanol]
- IC50 (BRD4-1 [1]): 95.2 nM
- IC50 (BRD4-2): 80.8 nM
- IC50 (BRD4-1 [2]): 24.7 nM

Structure (SMILES): CCC1CCC(=O)N1c1cc(-c2c(C)noc2C)cc2[nH]c(C3CC3)nc12 (stereo not shown) [Compound 1020-137, 1-(2-Cyclopropyl-6-(3,5-dimethylisoxazol-4-yl)-1H-benzo[d]imidazol-4-yl)-5-ethylpyrrolidin-2-one]
- IC50 (BRD4-1 [1]): 187 nM
- IC50 (BRD4-2): 399 nM
- IC50 (BRD4-1 [2]): 52.8 nM

Structure (SMILES): Cc1noc(C)c1-c1cc(S(=O)(=O)NC2CCCC2)c2nc(NCC3CC3)[nH]c2c1 [Compound 1020-1, N-Cyclopentyl-2-(cyclopropylmethylamino)-6-(3,5-dimethylisoxazol-4-yl)-1H-benzo[d]imidazole-4-sulfonamide]
- IC50 (BRD4-1 [1]): 201 nM
- IC50 (BRD4-2): 97.6 nM

Structure (SMILES): Cc1nc2cc(-c3c(C)noc3C)cc(-c3c(C)n[nH]c3C)c2[nH]1 [Compound 1020-77, 4-(7-(3,5-Dimethyl-1H-pyrazol-4-yl)-2-methyl-1H-benzo[d]imidazol-5-yl)-3,5-dimethylisoxazole]
- IC50 (BRD4-1 [1]): 244 nM
- IC50 (BRD4-2): 64.8 nM
- IC50 (BRD4-1 [2]): 42.7 nM

Structure (SMILES): Cc1ccnc(C)c1-c1cc(-c2c(C)noc2C)cc2[nH]cnc12 [Compound 1020-84, 4-(4-(2,4-Dimethylpyridin-3-yl)-1H-benzo[d]imidazol-6-yl)-3,5-dimethylisoxazole]
- IC50 (BRD4-1 [1]): 481 nM
- IC50 (BRD4-2): 234 nM
- IC50 (BRD4-1 [2]): 277 nM

Structure (SMILES): Cc1ccnc(C)c1-c1cc(-c2c(C)noc2C)cc2nc(C3CC3)[nH]c12 [Compound 1020-57, 4-(2-Cyclopropyl-7-(2,4-dimethylpyridin-3-yl)-1H-benzo[d]imidazol-5-yl)-3,5-dimethylisoxazole]
- IC50 (BRD4-1 [1]): 109 nM
- IC50 (BRD4-2): 54.4 nM
- IC50 (BRD4-1 [2]): 22.6 nM

Structure (SMILES): Cc1noc(C)c1-c1cc(S(=O)(=O)NC2CCCC2)c2nc(Cc3ccccc3)[nH]c2c1 [Compound 1020-141, 2-Benzyl-N-cyclopentyl-6-(3,5-dimethylisoxazol-4-yl)-1H-benzo[d]imidazole-4-sulfonamide]
- IC50 (BRD4-1 [1]): 704 nM
- IC50 (BRD4-2): 111 nM

Structure (SMILES): Cc1noc(C)c1-c1cc(S(=O)(=O)NC2CCCC2)c2nc(NCC(F)(F)F)[nH]c2c1 [Compound 1020-148, N-Cyclopentyl-6-(3,5-dimethylisoxazol-4-yl)-2-(2,2,2-trifluoroethylamino)-1H-benzo[d]imidazole-4-sulfonamide]
- IC50 (BRD4-1 [1]): 186 nM
- IC50 (BRD4-2): 180 nM

Structure (SMILES): CSc1nc2c(S(=O)(=O)NC3CCCC3)cc(-c3c(C)noc3C)cc2[nH]1 [Compound 1020-4, N-Cyclopentyl-6-(3,5-dimethylisoxazol-4-yl)-2-(methylthio)-1H-benzo[d]imidazole-4-sulfonamide]
- IC50 (BRD4-1 [1]): 337 nM
- IC50 (BRD4-2): 230 nM

Structure (SMILES): Cc1noc(C)c1-c1cc(S(=O)(=O)NC2CCCC2)c2nc([S+](C)[O-])[nH]c2c1 (stereo not shown) [Compound 1020-5, N-Cyclopentyl-6-(3,5-dimethylisoxazol-4-yl)-2-(methylsulfinyl)-1H-benzo[d]imidazole-4-sulfonamide]
- IC50 (BRD4-1 [1]): 616 nM
- IC50 (BRD4-2): 357 nM
